Data taken from patent publication US20060270684A1, “Crystalline forms of ziprasidone mesylate” (priority 2005, published 2006).
Counter-ions that a name gives are not always drawn.

How the values were obtained:
[1] = Water absorption of Form I at room temperature for 7 days under various relative humidity conditions; format: physicochemical
Procedure: Copper radiation of 1.5418 Å was used. A round aluminum sample holder with zero background was used. All peak positions are within ±0.2 degrees two theta. Karl Fisher analysis was performed according to the known art.

[2] = Transformations by heat (XRD and Karl Fisher after heating); format: physicochemical
Procedure: (§1) X-Ray powder diffraction data were obtained using a SCINTAG powder X-Ray diffractometer model X'TRA equipped with a solid state detector. Copper radiation of 1.5418 Å was used. A round aluminum sample holder with zero background was used. All peak positions are within ±0.2 degrees two theta.
(§2) Karl Fisher analysis was performed according to the known art.

[3] = Water absorption of Form IX after exposure for 10 days to 100% relative humidity at room temperature; format: physicochemical
Procedure: The present invention provides non-hygroscopic crystalline form of ziprasidone mesylate Form IX. Form IX was tested for water absorption after exposure for 10 days to 100% relative humidity at room temperature, as summarized in the following table:
as §2
Ziprasidone mesylate Form IX was exposed to 100% humidity at room temperature for 10 days. Before the exposure the water content was measured to be about 4.8%, while after the exposure the water content was measure to be about 5.0% water. The difference between water content before and after the exposure to 100% humidity is 0.2%.

[4] = Water absorption of Form XVIII, 7 days at 30° C. under humidity; format: physicochemical
Procedure: as §1, §2

[5] = aqueous medium at ambient temperature; cited from earlier work
[6] = 60% RH, room temperature, 7 days
[7] = 80% RH, room temperature, 7 days
[8] = 100% RH, room temperature, 7 days
[9] = 100% humidity at room temperature for 10 days
[10] = heated at TEMP. 90, 30 min, mesylate dihydrate
[11] = heated at TEMP. 120, 30 min, mesylate dihydrate

## O=C1Cc2cc(CCN3CCN(c4nsc5ccccc45)CC3)c(Cl)cc2N1 [Form I, ziprasidone mesylate]
[1]; [6]
  crystal form (by XRD): Form I
  water content (by Karl Fisher): 2.5%
[1]; [7]
  crystal form (by XRD): Form I
  water content (by Karl Fisher): 3.1%
[1]; [8]
  crystal form (by XRD): Form I
  water content (by Karl Fisher): 4.6%
[1]; Initial
  crystal form (by XRD): Form I
  water content (by Karl Fisher): 2.3%
[1]; room temperature, 7 days, various relative humidity conditions
  stability when tested for water absorption: stable

## O=C1Cc2cc(CCN3CCN(c4nsc5ccccc45)CC3)c(Cl)cc2N1 [Form II, ziprasidone mesylate]
[2]; heated at TEMP. 90, 30 min
  RESULT (XRD): Form II

## O=C1Cc2cc(CCN3CCN(c4nsc5ccccc45)CC3)c(Cl)cc2N1 [Form IX, ziprasidone mesylate]
[3]; 100% RH at RT, 10 days
  water content (by Karl Fisher): 5%
[3]; [9]
  difference between water content before and after the exposure: 0.2%
  water content after the exposure: about 5.0%
[3]; Initial
  water content (by Karl Fisher): 4.7%
[3]; before exposure to 100% humidity
  water content before the exposure: about 4.8%
[3]; non-hygroscopic = does not absorb more than 0.2% of water at 80% humidity, 25° C., 24 hours
  hygroscopicity: non-hygroscopic

## O=C1Cc2cc(CCN3CCN(c4nsc5ccccc45)CC3)c(Cl)cc2N1 [Form XVIII, ziprasidone mesylate]
[4]; 80% RH, 7 days at 30° C.
  Water content (by KF): 8.2%
  crystal form (by XRD): Trihydrate
[4]; 80% RH, 7 days at 30° C., listed as form XVIII
  crystal form (by XRD): transformation to trihydrate
[4]; 80% humidity for 7 days at 30° C.
  water content determined by Karl Fisher: about 8.2%
[4]; 100% RH, 7 days at 30° C.
  Water content (by KF): 9.1%
  crystal form (by XRD): Trihydrate
[4]; Initial
  Water content (by KF): 2%
  crystal form (by XRD): XVIII

## ziprasidone mesylate dihydrate [Dihydrate Lath]
[2]; [10]
  K.F.: 3.1%
  RESULT (XRD): Dihydrate Lath
[2]; [11]
  K.F.: 0.4%
  RESULT (XRD): Dihydrate Lath
[2]; heated at TEMP. 140, 30 min
  K.F.: 0.3%
  RESULT (XRD): Dihydrate Lath
[2]; heated at TEMP. 160, 30 min
  K.F.: 0.2%
[2]; heated at TEMP. 160, 30 min, listed as Dihydrate lath, mesylate dihydrate
  RESULT (XRD): Transformation from dihydrate lath to Form VI
[2]; heated at TEMP. 160, 30 min, mesylate dihydrate
  RESULT (XRD): Form VI
[2]; t = 0 (before heating)
  K.F.: (t = 0 6.5%)

## ziprasidone mesylate dihydrate [Dihydrate needle]
[2]; [10]
  K.F.: 3%
  RESULT (XRD): Dihydrate needle
[2]; [11]
  K.F.: 0.5%
  RESULT (XRD): Dihydrate needle

## ziprasidone mesylate trihydrate
[5]
  thermodynamic stability among the four crystalline forms of ziprasidone mesylate: most thermodynamically stable form
